# Results reported in patent publication US8163753B2, “2,3-dihydro-6-nitroimidazo (2,1-b) oxazole compounds for the treatment of tuberculosis” (priority 2003, dated 2012).
row,melting point,Compound
1,204.8 to 206.7 °C,C[C@]1(COc2ccc(N3CCC(CCOCc4ccc(OC(F)(F)F)cc4)CC3)cc2)Cn2cc([N+](=O)[O-])nc2O1
2,247.7 to 248.4 °C (dec.),C[C@]1(COc2ccc(-c3ccc(N4CCN(Cc5ccc(C(F)(F)F)cc5)CC4)cc3)cc2)Cn2cc([N+](=O)[O-])nc2O1
3,235.5 to 237.5 °C,CC(C)(C)OC(=O)N1CCCN(c2ccc(-c3ccc(OC[C@H]4Cn5cc([N+](=O)[O-])nc5O4)cc3)cc2)CC1
4,248.8 to 251.5 °C,C[C@]1(COc2ccc(-c3nc(-c4ccc(Cl)cc4)co3)cc2)Cn2cc([N+](=O)[O-])nc2O1
5,191.2 to 192.5 °C,O=[N+]([O-])c1cn2c(n1)OC(COc1ccc(N3CCC(COc4ccc(Cl)cc4)CC3)cc1)C2 (stereo not drawn)
6,180.9 to 182.7 °C,CC1(COc2ccc(N3CCC(Cc4ccc(OC(F)(F)F)cc4)CC3)cc2)Cn2cc([N+](=O)[O-])nc2O1 (stereo not drawn)
7,198 to 199 °C,CCCc1ccc(N(C)C2CCN(c3ccc(OC[C@@]4(C)Cn5cc([N+](=O)[O-])nc5O4)cc3)CC2)cc1
8,160.5 to 164 °C,O=[N+]([O-])c1cn2c(n1)O[C@@H](COc1ccc(N3CCC(Cc4ccc(OC(F)(F)F)cc4)CC3)cc1)C2
9,153.5 to 154.5 °C,CN(Cc1ccc(N(C)CC=Cc2ccc(C(F)(F)F)cc2)cc1)C[C@@]1(C)Cn2cc([N+](=O)[O-])nc2O1
10,222.6 to 225.1 °C (dec.),C[C@]1(COc2ccc(-c3ccc(N4CCN(Cc5ccc(Cl)c(Cl)c5)CC4)cc3)cc2)Cn2cc([N+](=O)[O-])nc2O1
11,101.3 to 104 °C,C[C@]1(COc2ccc3c(c2)nc(N2CCN(Cc4ccc(OC(F)(F)F)cc4)CC2)n3Cc2ccccc2)Cn2cc([N+](=O)[O-])nc2O1
12,199.7 to 202 °C,C[C@]1(COc2ccc(N3CCN(CC=Cc4ccc(C(F)(F)F)cc4)CC3)cc2)Cn2cc([N+](=O)[O-])nc2O1
13,198 to 199.2 °C,C[C@]1(COc2ccc(N3CCC(CCOCc4ccc(C(F)(F)F)cc4)CC3)cc2)Cn2cc([N+](=O)[O-])nc2O1
14,167.4 to 170.2 °C,CN(CCCOc1ccc(OC(F)(F)F)cc1)C1CCN(c2ccc(OC[C@@]3(C)Cn4cc([N+](=O)[O-])nc4O3)cc2)CC1
15,193.9 to 195.9 °C,C[C@]1(COc2ccc3nc(N4CCC(=Cc5ccc(OC(F)(F)F)cc5)CC4)ccc3c2)Cn2cc([N+](=O)[O-])nc2O1
16,171 to 173.8 °C,C[C@]1(COc2ccc(N3CCC(CO)CC3)cc2)Cn2cc([N+](=O)[O-])nc2O1
17,172.6 to 174.6 °C,CC1(COc2ccc3nc(N4CCN(Cc5ccc(OC(F)(F)F)cc5)CC4)sc3c2)Cn2cc([N+](=O)[O-])nc2O1 (stereo not drawn)
18,182.2 to 184.7 °C,C[C@]1(COc2ccc3nc(Cl)ccc3c2)Cn2cc([N+](=O)[O-])nc2O1
19,193.8 to 195.3 °C,CN(Cc1cc(C(F)(F)F)cc(C(F)(F)F)c1)C1CCN(c2ccc(OC[C@@]3(C)Cn4cc([N+](=O)[O-])nc4O3)cc2)CC1
20,188.3 to 189.4 °C,O=[N+]([O-])c1cn2c(n1)O[C@@H](COc1ccc(N3CCC(OCc4ccc(OC(F)(F)F)cc4)CC3)cc1)C2
21,207.1 to 211.2 °C,C[C@]1(COc2ccc(N3CCC(Cc4ccc(Cl)cc4)CC3)cc2)Cn2cc([N+](=O)[O-])nc2O1
22,208.9 to 211.7 °C,O=[N+]([O-])c1cn2c(n1)O[C@@H](COc1ccc(N3CCC(CCc4ccc(OC(F)(F)F)cc4)CC3)cc1)C2

row,melting point,Compound
1,186.9 to 189.5 °C,C[C@]1(COc2ccc(C(=O)NCC(=O)N3CCC(Oc4ccc(OC(F)(F)F)cc4)CC3)cc2)Cn2cc([N+](=O)[O-])nc2O1
2,207.4 to 210 °C,CN(Cc1cc2cc(Cl)ccc2o1)C1CCN(c2ccc(OC[C@@]3(C)Cn4cc([N+](=O)[O-])nc4O3)cc2)CC1
3,239.4 to 241.3 °C,C[C@]1(COc2ccc(N3CCC(CCc4ccc(OC(F)(F)F)cc4)CC3)cc2)Cn2cc([N+](=O)[O-])nc2O1
4,172.5 to 175.2 °C,CN(CC1CCN(c2ccc(OC(F)(F)F)cc2)CC1)c1ccc(OC[C@@]2(C)Cn3cc([N+](=O)[O-])nc3O2)cc1
5,140.4 to 141.7 °C,O=[N+]([O-])c1cn2c(n1)O[C@@H](COc1ccc(N3CCC(COCc4ccc(OC(F)(F)F)cc4)CC3)cc1)C2
6,196 to 197 °C,CN(c1ccc(OC(F)(F)F)cc1)C1CCN(C2CCN(c3ccc(OC[C@@]4(C)Cn5cc([N+](=O)[O-])nc5O4)cc3)CC2)CC1
7,210 to 212.1 °C,C[C@]1(COc2ccc(N3CCN(Cc4csc(-c5ccc(C(F)(F)F)cc5)n4)CC3)cc2)Cn2cc([N+](=O)[O-])nc2O1
8,213 to 214.9 °C,CN(CC=Cc1ccc(OC(F)(F)F)cc1)C1CCN(c2ccc(OC[C@@]3(C)Cn4cc([N+](=O)[O-])nc4O3)cc2)CC1
9,138.5 to 141.9 °C,CN(C(=O)OC(C)(C)C)C1CCN(Cc2ccc(OCC3(C)Cn4cc([N+](=O)[O-])nc4O3)cc2)CC1 (stereo not drawn)
10,230.8 to 232 °C,CN(c1ccc(Cl)cc1)C1CCN(C2CCN(c3ccc(OC[C@@]4(C)Cn5cc([N+](=O)[O-])nc5O4)cc3)CC2)CC1
11,140.4 to 141.7 °C,C[C@]1(COc2ccc(N3CCC(COc4ccc(CCl)cc4)CC3)cc2)Cn2cc([N+](=O)[O-])nc2O1
12,187.4 to 189.8 °C,C[C@]1(COc2ccc(N3CCC(Cc4cccc(OC(F)(F)F)c4)CC3)cc2)Cn2cc([N+](=O)[O-])nc2O1
13,137.9 to 139.2 °C,CN(c1ccc(OC[C@@]2(C)Cn3cc([N+](=O)[O-])nc3O2)cc1)C1CCN(c2ccc(OC(F)(F)F)cc2)CC1
14,146 to 147.4 °C,C[C@]1(COc2ccc(N3CCC(Nc4ccc(Cl)c(Cl)c4)CC3)cc2)Cn2cc([N+](=O)[O-])nc2O1
15,184.9 to 185.9 °C,C[C@]1(COc2ccc3nc(N4CCC(Cc5ccc(OC(F)(F)F)cc5)CC4)ccc3c2)Cn2cc([N+](=O)[O-])nc2O1
16,172.5 to 174.1 °C,C[C@]1(COc2ccc(CN3CCC(Cc4ccc(OC(F)(F)F)cc4)CC3)cc2)Cn2cc([N+](=O)[O-])nc2O1
17,204.8 to 207.9 °C,C[C@]1(COc2ccc3cc(N4CCC(Oc5ccc(OC(F)(F)F)cc5)CC4)ccc3c2)Cn2cc([N+](=O)[O-])nc2O1
18,197.5 to 199.2 °C,CN(Cc1ccc(C(F)(F)F)cc1F)C1CCN(c2ccc(OC[C@@]3(C)Cn4cc([N+](=O)[O-])nc4O3)cc2)CC1
19,213.7 to 217.4 °C,C[C@]1(COc2ccc(N3CCC(OCC=Cc4ccc(OC(F)(F)F)cc4)CC3)cc2)Cn2cc([N+](=O)[O-])nc2O1
20,172.3 to 172.9 °C,C[C@]1(COc2ccc(N3CCC(COCc4ccc(C(F)(F)F)cc4)CC3)cc2)Cn2cc([N+](=O)[O-])nc2O1
21,247.8 to 248.5 °C (dec.),C[C@]1(COc2ccc(-c3ccc(N4CCN(Cc5ccc(Cl)cc5)CC4)cc3)cc2)Cn2cc([N+](=O)[O-])nc2O1
22,217.4 to 219.7 °C,C[C@]1(COc2ccc(N3CCC(OCc4ccc(C(F)(F)F)cc4)CC3)cc2)Cn2cc([N+](=O)[O-])nc2O1

row,melting point,Compound
1,279 to 281 °C,C[C@]1(COc2ccc(N3CCC(N4CCN(c5ccc(OC(F)(F)F)cc5)CC4)CC3)cc2)Cn2cc([N+](=O)[O-])nc2O1
2,191.4 to 192.1 °C,CC1(COc2ccc(N3CCC(Cc4ccc(Cl)c(Cl)c4)CC3)cc2)Cn2cc([N+](=O)[O-])nc2O1 (stereo not drawn)
3,198.2 to 201.4 °C,C[C@]1(COc2ccc(N3CCN(Cc4ccc(N5CCC(Oc6ccc(OC(F)(F)F)cc6)CC5)cc4)CC3)cc2)Cn2cc([N+](=O)[O-])nc2O1
4,181.1 to 182.2 °C,CC1(COc2ccc(N3CCN(CC=Cc4ccc(OC(F)(F)F)cc4)CC3)cc2)Cn2cc([N+](=O)[O-])nc2O1 (stereo not drawn)
5,185.9 to 187.1 °C,C[C@]1(COc2ccc(C3CCN(CC=Cc4ccc(C(F)(F)F)cc4)CC3)cc2)Cn2cc([N+](=O)[O-])nc2O1
6,223.2 to 225.2 °C (dec.),C[C@]1(COc2ccc(N3CCC(COc4ccc(C(F)(F)F)cc4)CC3)cc2)Cn2cc([N+](=O)[O-])nc2O1
7,153.1 to 153.7 °C,CC1(COc2ccc(N3CCC(COCc4ccc(OC(F)(F)F)cc4)CC3)cc2)Cn2cc([N+](=O)[O-])nc2O1 (stereo not drawn)
8,204.7 to 206.4 °C,C[C@]1(COc2ccc(N3CCN(CC=Cc4ccc(Cl)c(Cl)c4)CC3)cc2)Cn2cc([N+](=O)[O-])nc2O1
9,213.8 to 215.7 °C,CC(C)(C)OC(=O)N1CCCN(c2ccc(-c3ccc(OC[C@@]4(C)Cn5cc([N+](=O)[O-])nc5O4)cc3)cc2)CC1
10,140.2 to 141.7 °C,O=[N+]([O-])c1cn2c(n1)OC(COc1ccc(N3CCC(COCc4ccc(C(F)(F)F)cc4)CC3)cc1)C2 (stereo not drawn)
11,194.6 to 196.4 °C,C[C@]1(COc2ccc(C3CCN(Cc4csc(-c5ccc(C(F)(F)F)cc5)n4)CC3)cc2)Cn2cc([N+](=O)[O-])nc2O1
12,132.7 to 135 °C,O=[N+]([O-])c1cn2c(n1)OC(COc1ccc(N3CCC(Cc4ccc(OC(F)(F)F)cc4)CC3)cc1)C2 (stereo not drawn)
13,134 to 137.9 °C,C[C@]1(COc2ccc(N3CCCN(c4ccc(OC(F)(F)F)cc4)CC3)cc2)Cn2cc([N+](=O)[O-])nc2O1
14,175 to 180 °C,O=[N+]([O-])c1cn2c(n1)O[C@@H](COc1ccc(N3CCC(COc4ccc(C(F)(F)F)cc4)CC3)cc1)C2
15,211.6 to 212 °C (dec.),C[C@]1(COc2ccc(N3CCC(COC(=O)Nc4ccc(OC(F)(F)F)cc4)CC3)cc2)Cn2cc([N+](=O)[O-])nc2O1
16,190 to 190.4 °C,CC1(COc2ccc(N3CCC(COc4ccc(Cl)cc4)CC3)cc2)Cn2cc([N+](=O)[O-])nc2O1 (stereo not drawn)
17,198.6 to 201.1 °C (dec.),C[C@]1(COc2ccc(N3CCC(Nc4ccc(Oc5ccc(OC(F)(F)F)cc5)cc4)CC3)cc2)Cn2cc([N+](=O)[O-])nc2O1
18,189.6 to 190.2 °C,CN(Cc1ccccc1C(F)(F)F)C1CCN(c2ccc(OC[C@@]3(C)Cn4cc([N+](=O)[O-])nc4O3)cc2)CC1
19,222 to 223 °C,CCCc1ccc(NC2CCN(c3ccc(OC[C@@]4(C)Cn5cc([N+](=O)[O-])nc5O4)cc3)CC2)cc1
20,122 to 124 °C,C[C@]1(COc2ccc(N3CCC(Nc4cc(Cl)cc(Cl)c4)CC3)cc2)Cn2cc([N+](=O)[O-])nc2O1
21,185.9 to 186.7 °C,C[C@]1(COc2ccc(N3CCC(Oc4ccc(OC(F)(F)F)cc4)CC3)nc2)Cn2cc([N+](=O)[O-])nc2O1

row,Compound,melting point
1,C[C@]1(COc2ccc(N3CCN(CCOc4ccc(OC(F)(F)F)cc4)CC3)cc2)Cn2cc([N+](=O)[O-])nc2O1,194.8 to 195.6 °C
